Experimental data reported in PubChem BioAssay AID2060508 (Molecular Pharmacology Branch, DTP, NCI, 2025).
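Also: spheroids exposed to compounds for seven days; 100% = DMSO vehicle control viability.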

Each molecule was assayed on 454973-116-R2-J3-PDC spheroids, viability, % test/control (assay: Anticancer human tumor 454973-116-R2-J3-PDC patient-derived pancreatic carcinoma cell line growth inhibition [GQUAD]). Settings: second compound 0.0316 µM; first compound 3.16 µM; active compounds read low; spheroids with HUVEC and MSC.
How it was run: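 Multi-cell-type spheroids of tumor cells with HUVEC and mesenchymal stem cells, treated with drug combinations. Concentrations descend in half-log steps from near clinical Cmax, or from 10 microM where Cmax is unknown; viability read-out.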
CC(C)n1c(=O)n(C)c2cnc3cc(F)c(-c4ccc(OCCCN5CCCCC5)nc4)cc3c21 + Cc1[nH]c2ccc(F)cc2c1-c1nc2c3cccnc3c3ncccc3c2[nH]1 gave a viability, T/C of 95.8%.
CC1COCCN1c1cc(-c2ccnn2C)c2ccnc(-c3ccn[nH]3)c2n1 (configuration not stated) + Cc1[nH]c2ccc(F)cc2c1-c1nc2c3cccnc3c3ncccc3c2[nH]1 showed a viability, T/C of 26.3%.
CC1COCCN1c1cc(C2(S(C)(=N)=O)CC2)nc(-c2ccnc3[nH]ccc23)n1 (configuration not stated) + Cc1[nH]c2ccc(F)cc2c1-c1nc2c3cccnc3c3ncccc3c2[nH]1 was tested, and the viability, T/C was 76%.
Molecule COc1ccc([C@@H](O)c2cc(-c3ncnc4cc(N5CCOCC5)ccc34)c(F)cc2Cl)nn1 + Cc1[nH]c2ccc(F)cc2c1-c1nc2c3cccnc3c3ncccc3c2[nH]1 has a viability, T/C of 59.3%.

Same assay, conditions: second compound 0.0316 µM; first compound 10 µM; active compounds read low; spheroids with HUVEC and MSC
CC(C)(O)C1CCC(Nc2ccc3ncc(-c4cccc(C(F)(F)F)c4)n3n2)CC1 (configuration not stated) + CN(C)c1ccc(Nc2c3ccc(NC(=O)CCN4CCCC4)cc3nc3cc(NC(=O)CCN4CCCC4)ccc23)cc1 gave a viability, T/C of 29.5%.
With COc1ncnc(C2CC2)c1-c1ncc2cnn(Cc3ccc(-c4nc(C(F)(F)F)cn4C(C)C)cc3)c2n1 + CN(C)c1ccc(Nc2c3ccc(NC(=O)CCN4CCCC4)cc3nc3cc(NC(=O)CCN4CCCC4)ccc23)cc1 the viability, T/C was 102%.
Work on O=C(NO)c1cnc(N2CCN(S(=O)(=O)c3ccc4ccccc4c3)CC2)nc1 + CN(C)c1ccc(Nc2c3ccc(NC(=O)CCN4CCCC4)cc3nc3cc(NC(=O)CCN4CCCC4)ccc23)cc1 yielded a viability, T/C of 1%.
Molecule CC(C)n1c(=O)n(C)c2cnc3cc(F)c(-c4ccc(OCCCN5CCCCC5)nc4)cc3c21 + Cc1[nH]c2ccc(F)cc2c1-c1nc2c3cccnc3c3ncccc3c2[nH]1 has a viability, T/C of 67.5%.
With CC1COCCN1c1cc(-c2ccnn2C)c2ccnc(-c3ccn[nH]3)c2n1 (configuration not stated) + Cc1[nH]c2ccc(F)cc2c1-c1nc2c3cccnc3c3ncccc3c2[nH]1 the viability, T/C was 23.6%.
Work on CC1COCCN1c1cc(C2(S(C)(=N)=O)CC2)nc(-c2ccnc3[nH]ccc23)n1 (configuration not stated) + Cc1[nH]c2ccc(F)cc2c1-c1nc2c3cccnc3c3ncccc3c2[nH]1 yielded a viability, T/C of 28.1%.
COc1ccc([C@@H](O)c2cc(-c3ncnc4cc(N5CCOCC5)ccc34)c(F)cc2Cl)nn1 + Cc1[nH]c2ccc(F)cc2c1-c1nc2c3cccnc3c3ncccc3c2[nH]1 gave a viability, T/C of 46.9%.

Same assay, conditions: second compound 0.1 µM; first compound 0.0316 µM; active compounds read low; spheroids with HUVEC and MSC
CC(C)(O)C1CCC(Nc2ccc3ncc(-c4cccc(C(F)(F)F)c4)n3n2)CC1 (configuration not stated) + CN(C)c1ccc(Nc2c3ccc(NC(=O)CCN4CCCC4)cc3nc3cc(NC(=O)CCN4CCCC4)ccc23)cc1 was tested, and the viability, T/C was 93.8%.
Work on COc1ncnc(C2CC2)c1-c1ncc2cnn(Cc3ccc(-c4nc(C(F)(F)F)cn4C(C)C)cc3)c2n1 + CN(C)c1ccc(Nc2c3ccc(NC(=O)CCN4CCCC4)cc3nc3cc(NC(=O)CCN4CCCC4)ccc23)cc1 yielded a viability, T/C of 102%.
O=C(NO)c1cnc(N2CCN(S(=O)(=O)c3ccc4ccccc4c3)CC2)nc1 + CN(C)c1ccc(Nc2c3ccc(NC(=O)CCN4CCCC4)cc3nc3cc(NC(=O)CCN4CCCC4)ccc23)cc1 gave a viability, T/C of 102%.
For CC(C)n1c(=O)n(C)c2cnc3cc(F)c(-c4ccc(OCCCN5CCCCC5)nc4)cc3c21 + Cc1[nH]c2ccc(F)cc2c1-c1nc2c3cccnc3c3ncccc3c2[nH]1, the viability, T/C was 95.8%.
CC1COCCN1c1cc(-c2ccnn2C)c2ccnc(-c3ccn[nH]3)c2n1 (configuration not stated) + Cc1[nH]c2ccc(F)cc2c1-c1nc2c3cccnc3c3ncccc3c2[nH]1 was tested, and the viability, T/C was 98.1%.
For CC1COCCN1c1cc(C2(S(C)(=N)=O)CC2)nc(-c2ccnc3[nH]ccc23)n1 (configuration not stated) + Cc1[nH]c2ccc(F)cc2c1-c1nc2c3cccnc3c3ncccc3c2[nH]1, the viability, T/C was 106%.
Work on COc1ccc([C@@H](O)c2cc(-c3ncnc4cc(N5CCOCC5)ccc34)c(F)cc2Cl)nn1 + Cc1[nH]c2ccc(F)cc2c1-c1nc2c3cccnc3c3ncccc3c2[nH]1 yielded a viability, T/C of 115%.

Same assay, conditions: second compound 0.1 µM; first compound 0.1 µM; active compounds read low; spheroids with HUVEC and MSC
CC(C)(O)C1CCC(Nc2ccc3ncc(-c4cccc(C(F)(F)F)c4)n3n2)CC1 (configuration not stated) + CN(C)c1ccc(Nc2c3ccc(NC(=O)CCN4CCCC4)cc3nc3cc(NC(=O)CCN4CCCC4)ccc23)cc1 was tested, and the viability, T/C was 90.3%.
For COc1ncnc(C2CC2)c1-c1ncc2cnn(Cc3ccc(-c4nc(C(F)(F)F)cn4C(C)C)cc3)c2n1 + CN(C)c1ccc(Nc2c3ccc(NC(=O)CCN4CCCC4)cc3nc3cc(NC(=O)CCN4CCCC4)ccc23)cc1, the viability, T/C was 114%.
O=C(NO)c1cnc(N2CCN(S(=O)(=O)c3ccc4ccccc4c3)CC2)nc1 + CN(C)c1ccc(Nc2c3ccc(NC(=O)CCN4CCCC4)cc3nc3cc(NC(=O)CCN4CCCC4)ccc23)cc1 was tested, and the viability, T/C was 83.4%.
CC(C)n1c(=O)n(C)c2cnc3cc(F)c(-c4ccc(OCCCN5CCCCC5)nc4)cc3c21 + Cc1[nH]c2ccc(F)cc2c1-c1nc2c3cccnc3c3ncccc3c2[nH]1 was tested, and the viability, T/C was 107%.
In the case of CC1COCCN1c1cc(-c2ccnn2C)c2ccnc(-c3ccn[nH]3)c2n1 (configuration not stated) + Cc1[nH]c2ccc(F)cc2c1-c1nc2c3cccnc3c3ncccc3c2[nH]1, the viability, T/C is reported as 67.1%.
CC1COCCN1c1cc(C2(S(C)(=N)=O)CC2)nc(-c2ccnc3[nH]ccc23)n1 (configuration not stated) + Cc1[nH]c2ccc(F)cc2c1-c1nc2c3cccnc3c3ncccc3c2[nH]1 gave a viability, T/C of 96.9%.
Work on COc1ccc([C@@H](O)c2cc(-c3ncnc4cc(N5CCOCC5)ccc34)c(F)cc2Cl)nn1 + Cc1[nH]c2ccc(F)cc2c1-c1nc2c3cccnc3c3ncccc3c2[nH]1 yielded a viability, T/C of 104%.

Same assay, conditions: second compound 0.1 µM; first compound 0.316 µM; active compounds read low; spheroids with HUVEC and MSC
Work on CC(C)(O)C1CCC(Nc2ccc3ncc(-c4cccc(C(F)(F)F)c4)n3n2)CC1 (configuration not stated) + CN(C)c1ccc(Nc2c3ccc(NC(=O)CCN4CCCC4)cc3nc3cc(NC(=O)CCN4CCCC4)ccc23)cc1 yielded a viability, T/C of 102%.
Work on COc1ncnc(C2CC2)c1-c1ncc2cnn(Cc3ccc(-c4nc(C(F)(F)F)cn4C(C)C)cc3)c2n1 + CN(C)c1ccc(Nc2c3ccc(NC(=O)CCN4CCCC4)cc3nc3cc(NC(=O)CCN4CCCC4)ccc23)cc1 yielded a viability, T/C of 114%.
O=C(NO)c1cnc(N2CCN(S(=O)(=O)c3ccc4ccccc4c3)CC2)nc1 + CN(C)c1ccc(Nc2c3ccc(NC(=O)CCN4CCCC4)cc3nc3cc(NC(=O)CCN4CCCC4)ccc23)cc1 showed a viability, T/C of 28.9%.
Molecule CC(C)n1c(=O)n(C)c2cnc3cc(F)c(-c4ccc(OCCCN5CCCCC5)nc4)cc3c21 + Cc1[nH]c2ccc(F)cc2c1-c1nc2c3cccnc3c3ncccc3c2[nH]1 has a viability, T/C of 109%.
For CC1COCCN1c1cc(-c2ccnn2C)c2ccnc(-c3ccn[nH]3)c2n1 (configuration not stated) + Cc1[nH]c2ccc(F)cc2c1-c1nc2c3cccnc3c3ncccc3c2[nH]1, the viability, T/C was 30.6%.
Work on CC1COCCN1c1cc(C2(S(C)(=N)=O)CC2)nc(-c2ccnc3[nH]ccc23)n1 (configuration not stated) + Cc1[nH]c2ccc(F)cc2c1-c1nc2c3cccnc3c3ncccc3c2[nH]1 yielded a viability, T/C of 110%.
COc1ccc([C@@H](O)c2cc(-c3ncnc4cc(N5CCOCC5)ccc34)c(F)cc2Cl)nn1 + Cc1[nH]c2ccc(F)cc2c1-c1nc2c3cccnc3c3ncccc3c2[nH]1 showed a viability, T/C of 95.3%.

Same assay, conditions: second compound 0.1 µM; first compound 1 µM; active compounds read low; spheroids with HUVEC and MSC
Molecule CC(C)(O)C1CCC(Nc2ccc3ncc(-c4cccc(C(F)(F)F)c4)n3n2)CC1 (configuration not stated) + CN(C)c1ccc(Nc2c3ccc(NC(=O)CCN4CCCC4)cc3nc3cc(NC(=O)CCN4CCCC4)ccc23)cc1 has a viability, T/C of 72.6%.
COc1ncnc(C2CC2)c1-c1ncc2cnn(Cc3ccc(-c4nc(C(F)(F)F)cn4C(C)C)cc3)c2n1 + CN(C)c1ccc(Nc2c3ccc(NC(=O)CCN4CCCC4)cc3nc3cc(NC(=O)CCN4CCCC4)ccc23)cc1 showed a viability, T/C of 108%.
With O=C(NO)c1cnc(N2CCN(S(=O)(=O)c3ccc4ccccc4c3)CC2)nc1 + CN(C)c1ccc(Nc2c3ccc(NC(=O)CCN4CCCC4)cc3nc3cc(NC(=O)CCN4CCCC4)ccc23)cc1 the viability, T/C was 2.6%.
CC(C)n1c(=O)n(C)c2cnc3cc(F)c(-c4ccc(OCCCN5CCCCC5)nc4)cc3c21 + Cc1[nH]c2ccc(F)cc2c1-c1nc2c3cccnc3c3ncccc3c2[nH]1 showed a viability, T/C of 102%.
CC1COCCN1c1cc(-c2ccnn2C)c2ccnc(-c3ccn[nH]3)c2n1 (configuration not stated) + Cc1[nH]c2ccc(F)cc2c1-c1nc2c3cccnc3c3ncccc3c2[nH]1 showed a viability, T/C of 23.3%.
